Laboratory results: paper PMC2706954, “Dissecting Structural and Functional Diversity of the Lantibiotic Mersacidin” (Chemistry & Biology, 2009)
In brackets after ≈: the same amount, converted by molar mass. Several values for one entry are separate records, joined by “and”; a condition that tells them apart may be missing. Equal entries are not always repeated. Where two headings read alike, the source gives them in different places. Where no end group is shown, it is not given here.

Assays:
S. aureus R33 MRSA = type: cell-based, Staphylococcus aureus
Experimental: (§1) Antibacterial activity of fermentation samples or purified samples was determined by Mueller-Hinton Agar diffusion bioassays using M. luteus ATCC 4698 as the indicator strain. Susceptibility testing (minimum inhibitory concentration [MIC]) for all aerobic organisms, with the exception of S. pneumoniae, was performed following the recommendations of CLSI. Susceptibility testing of S. pneumoniae was performed by two-fold serial dilutions in brain-heart-infusion broth supplemented with 50 μg/ml Ca^2+. Vancomycin was used as a reference antibiotic, and plates were incubated aerobically, with shaking, for 18–20 hr at 37°C with the MIC defined as the lowest concentration of drug that prevented visible growth.

S. aureus SH1000 = type: cell-based, Staphylococcus aureus
Experimental: as §1

S. pneumoniae BAA-255 = type: cell-based, Streptococcus pneumoniae
Experimental: as §1

M. luteus ATCC4698 = type: cell-based, Micrococcus luteus
Experimental: as §1

E. faecalis ATCC29212 = type: cell-based
Experimental: as §1

E. faecium 7131121 VRE = type: cell-based
Experimental: as §1

E. faecium ATCC19579 = type: cell-based
Experimental: as §1

S. epidermidis NCTC11047 = type: cell-based
Experimental: as §1

MRSA = details: ref Kruszewska et al., 2004; cited from earlier work
Excerpt: (§2) Mersacidin has antibacterial activity against Gram-positive pathogens; like vancomycin, it binds to the peptidoglycan precursor lipid II ([Brotz et al., 1995; Brotz et al., 1997]).

[1] = test system: methicillin-resistant Staphylococcus aureus (MRSA); details: administered subcutaneously; at concentrations comparable to vancomycin; ref Chatterjee et al., 1992b; cited from earlier work
Excerpt: as §2

[2] = test system: panel of microorganisms (target strains); assay: MIC determination against the panel of microorganisms (target strains); type: cell-based; details: comparison with mersacidin or with parent single mutants
Experimental: Partially purified fermentation samples from clones expressing highly produced variants were assayed for antimicrobial activity against M. luteus. Samples were fractionated to eliminate interfering bioactive compounds produced by the host strain and were bioassayed (see Supplemental Data available online). Selected mersacidin variants with antibacterial activity against M. luteus were produced at larger scale for quantitative studies (2 l). The mersacidin variants were purified and assayed against a panel of microorganisms to determine the MIC values.
as §1

[3] = CLSI recommendations, incubated aerobically with shaking 18–20 hr at 37°C, MIC = lowest concentration preventing visible growth, purified variants

Compound: Mersacidin [reference compound]
- MIC S. aureus R33 MRSA (S. aureus R33 MRSA; [3]): 32 µg/mL
- MIC S. aureus SH1000 (S. aureus SH1000; [3]): 32 µg/mL
- MIC S. pneumoniae BAA-255 (S. pneumoniae BAA-255; two-fold serial dilutions in brain-heart-infusion broth with 50 μg/ml Ca2+, 18–20 hr at 37°C, MIC = lowest concentration preventing visible growth): 2 µg/mL
- MIC M. luteus ATCC4698 (M. luteus ATCC4698; [3]): 1 µg/mL and 2 µg/mL
- MIC E. faecalis ATCC29212 (E. faecalis ATCC29212; [3]): 64 µg/mL
- MIC E. faecium 7131121 VRE (E. faecium 7131121 VRE; vancomycin-resistant clinical isolate, CLSI recommendations, 18–20 hr at 37°C, MIC = lowest concentration preventing visible growth): 64 µg/mL
- MIC E. faecium ATCC19579 (E. faecium ATCC19579; [3]): 32 µg/mL
- MIC S. epidermidis NCTC11047 (S. epidermidis NCTC11047; [3]): 16 µg/mL and 32 µg/mL
- eradication of MRSA in a mouse rhinitis model (MRSA): eradicates MRSA
- cure of abscesses in rats [1]: cures
- cure of systemic MRSA infections in mice [1]: cures

Compound: F3W-L14I (CTWTLPGGGGVCTITSECIC; also: mersacidin methyllanthionine thioether bridges, not placed, C-terminal decarboxylated Cys (2-thioethenamine); UniProt P43683 49-68, looked up, variant F3W L14I)
- antibacterial activity, in words, compared with parent [2]: comparable to those of the parent mutants

Compound: C=C1NC(=O)C2NC(=O)[C@H](CC(C)C)NC(=O)C(NC(=O)[C@@H]3CSC(C)C(NC(=O)[C@H](Cc4ccccc4)NC(=O)C4NC(=O)[C@@H](N)CSC4C)C(=O)N[C@@H](CC(C)C)C(=O)N4CCC[C@H]4C(=O)NCC(=O)NCC(=O)NCC(=O)NCC(=O)N[C@@H]([C@@H](C)CC)C(=O)N3)C(C)SC[C@H](NC(=O)[C@H](CCC(=O)O)NC1=O)C(=O)N[C@@H]([C@@H](C)CC)C(=O)NC=CSC2C (some centres unmarked) [V11I]
- MIC S. aureus R33 MRSA (S. aureus R33 MRSA; R33): 16 µg/mL (≈ 8.69 µM)
- MIC S. aureus SH1000 (S. aureus SH1000; SH1000): 32 µg/mL (≈ 17.4 µM)
- MIC S. pneumoniae BAA-255 (S. pneumoniae BAA-255; BAA-255): 16 µg/mL (≈ 8.69 µM)
- MIC M. luteus ATCC4698 (M. luteus ATCC4698; ATCC4698): 0.5 µg/mL (≈ 0.272 µM)
- MIC E. faecalis ATCC29212 (E. faecalis ATCC29212; ATCC29212): 16 µg/mL (≈ 8.69 µM)
- MIC E. faecium 7131121 VRE (E. faecium 7131121 VRE; 7131121 VRE): 16 µg/mL (≈ 8.69 µM)
- MIC E. faecium ATCC19579 (E. faecium ATCC19579; ATCC19579): 16 µg/mL (≈ 8.69 µM)
- MIC S. epidermidis NCTC11047 (S. epidermidis NCTC11047; NCTC11047): 16 µg/mL (≈ 8.69 µM)

Compound: C=C1NC(=O)C2NC(=O)[C@H](CC(C)C)NC(=O)C(NC(=O)[C@@H]3CSC(C)C(NC(=O)[C@H](Cc4ccccc4)NC(=O)C4NC(=O)[C@@H](N)CSC4C)C(=O)N[C@@H](CC(C)C)C(=O)N4CCC[C@H]4C(=O)NCC(=O)NCC(=O)NCC(=O)N[C@@H](C(C)C)C(=O)N[C@@H](C(C)C)C(=O)N3)C(C)SC[C@H](NC(=O)[C@H](CCC(=O)O)NC1=O)C(=O)N[C@@H]([C@@H](C)CC)C(=O)NC=CSC2C (some centres unmarked) [G10V]
- MIC S. aureus R33 MRSA (S. aureus R33 MRSA; R33): 64, >64 μg/ml
- MIC S. aureus SH1000 (S. aureus SH1000; SH1000): >64 µg/mL
- MIC S. pneumoniae BAA-255 (S. pneumoniae BAA-255; BAA-255): 16 µg/mL (≈ 8.56 µM)
- MIC M. luteus ATCC4698 (M. luteus ATCC4698; ATCC4698): < 4 µg/mL
- MIC E. faecalis ATCC29212 (E. faecalis ATCC29212; ATCC29212): >64 µg/mL
- MIC E. faecium 7131121 VRE (E. faecium 7131121 VRE; 7131121 VRE): >64 µg/mL
- MIC E. faecium ATCC19579 (E. faecium ATCC19579; ATCC19579): >64 µg/mL
- MIC S. epidermidis NCTC11047 (S. epidermidis NCTC11047; NCTC11047): 64 µg/mL (≈ 34.3 µM)

Compound: V11I-L14I (CTFTLPGGGGICTITSECIC; also: mersacidin methyllanthionine thioether bridges, not placed, C-terminal decarboxylated Cys (2-thioethenamine); UniProt P43683 49-68, looked up, variant V11I L14I)
- antibacterial activity, in words, compared with parent [2]: comparable to those of the parent mutants
